Test [1] concerns Plasmodium falciparum. The test is described as follows: Relative in vitro activity against drug-resistant Plasmodium falciparum W-6. It is filed as functional.
Test [2] has as its system Plasmodium falciparum. The test is described as follows: Relative in vitro activity against drug-resistant Plasmodium falciparum D6. In kind it is functional.

`CCCC[C@H]1C(=O)O[C@@H]2O[C@@]3(CCCCc4ccccc4)CC[C@H]4[C@H](C)CC[C@@H]1[C@@]24OO3`: the Relative activity in test [1] is 48; in test [2] it was 39.
The matching figures for `CCCC[C@H]1C(=O)O[C@@H]2O[C@@]3(CCC(=O)OCC)CC[C@H]4[C@H](C)CC[C@@H]1[C@@]24OO3`: 2285 and 1382.
The matching figures for `CCOC(=O)CC[C@@]12CC[C@H]3[C@H](C)CC[C@H]4CC(=O)O[C@H](O1)[C@]43OO2`: 232 and 232.
Turning to `CC[C@@]12CC[C@H]3[C@H](C)CC[C@H]4CC(=O)O[C@H](O1)[C@]43OO2`, the Relative activity came to 112 in test [1] and 88 in test [2].
Consider `CCCC[C@@]12CC[C@H]3[C@H](C)CC[C@H]4CC(=O)O[C@H](O1)[C@]43OO2`, for which the Relative activity in test [1] amounted to 18; in test [2], 20.
For `CCC[C@@]12CC[C@H]3[C@H](C)CC[C@H]4CC(=O)O[C@H](O1)[C@]43OO2` the same measures were 673 and 2102.
For `C[C@@H]1CC[C@H]2CC(=O)O[C@@H]3O[C@@]4(CCCCc5ccccc5)CC[C@@H]1[C@@]23OO4` the same measures were 281 and 220.
The matching figures for `C[C@@H]1CC[C@H]2CC(=O)O[C@@H]3O[C@@]4(CCCc5ccc(Cl)cc5)CC[C@@H]1[C@@]23OO4`: 127 and 114.
Consider `CCCC[C@H]1C(=O)O[C@@H]2O[C@@]3(CCc4ccccc4)CC[C@H]4[C@H](C)CC[C@@H]1[C@@]24OO3`, for which the Relative activity in test [1] and in test [2] was 1 throughout.
Consider `CCCC[C@H]1C(=O)O[C@@H]2O[C@@]3(CCCC)CC[C@H]4[C@H](C)CC[C@@H]1[C@@]24OO3`, for which the Relative activity in test [1] is 33; in test [2], 28.
In the case of `CCCC[C@H]1C(=O)O[C@@H]2O[C@@]3(CC)CC[C@H]4[C@H](C)CC[C@@H]1[C@@]24OO3`, the Relative activity in test [1] is recorded as 257; in test [2], 184.
For `C[C@@H]1CC[C@H]2CC(=O)O[C@@H]3O[C@@]4(CCc5ccccc5)CC[C@@H]1[C@@]23OO4` the same measures were 1 and 3.
For `C[C@@H]1CC[C@H]2[C@@H](C)C(=O)O[C@@H]3O[C@@]4(C)CC[C@@H]1[C@]32OO4` [ARTEMISININ] the same measures were 100 and 100.
For `CC(C)C[C@@]12CC[C@H]3[C@H](C)CC[C@H]4CC(=O)O[C@H](O1)[C@]43OO2` the same measures were 45 and 53.
Regarding `CCCC[C@H]1C(=O)O[C@@H]2O[C@@]3(CCCc4ccc(Cl)cc4)CC[C@H]4[C@H](C)CC[C@@H]1[C@@]24OO3`, the Relative activity is on record as 53 in test [1] and 43 in test [2].

These data come from ChEMBL document CHEMBL1129046, “Structure-activity relationships of the antimalarial agent artemisinin. 4. Effect of substitution at C-3” (1996).
